Source: ChEMBL document CHEMBL1130670, “Potent bicyclic lactam inhibitors of thrombin: Part I: P3 modifications” (Bioorg Med Chem Lett, 1998)

Tests used:
[1] = target: Prothrombin (Rattus norvegicus) (UniProt P18292)
Description: Compound was tested for the antithrombic effect in rat arterial thrombosis model and expressed as activated partial thromboplastin time(PTT)

[2] = target: Prothrombin (Rattus norvegicus) (UniProt P18292); remark: listed apart in the source
Description: Compound was tested for the antithrombic effect in rat arterial thrombosis model and expressed as mean occlusion time(MOT)

[3] = target: Prothrombin (Rattus norvegicus) (UniProt P18292); remark: listed apart in the source
Description: Compound was tested for the antithrombic effect in rat arterial thrombosis model and expressed as thrombin time(TT)

[4] = target: Prothrombin (Homo sapiens, UniProt P00734); test: Binding affinity against thrombin
For APTT in this document: test concentration or dose not given here.
For TT in this document: test concentration or dose not given here.

SMILES	Ki [4]	APTT [1]	MOT [2]	TT [3]
N=C(N)NCCCC(NC(=O)[C@@H]1CC[C@H]2CN(C(=O)Cc3ccccc3)CC(=O)N21)C(=O)c1nccs1 (some centres undefined)	2.5 nM	79.2 s	> 60 min	387 s
N=C(N)NCCCC(NC(=O)[C@@H]1CC[C@H]2CN(C(=O)CCc3ccc(Cl)c(Cl)c3)CC(=O)N21)C(=O)c1nccs1 (some centres undefined)	0.106 nM	–	–	–
N=C(N)NCCCC(NC(=O)[C@@H]1CC[C@H]2CN(C(=O)[C@@H](N)Cc3ccc(O)cc3)CC(=O)N21)C(=O)c1nccs1 (stereo in doubt; 32)	18 nM	–	–	–
NC(N)=NCCCC(NC(=O)[C@@H]1CC[C@H]2CN(C(=O)[C@@H](N)Cc3ccc(O)cc3)CC(=O)N21)C(=O)c1nccs1 (stereo in doubt; 32)	–	76 s	53 min	433 s
COc1ccc(CCC(=O)N2CC(=O)N3[C@@H](CC[C@H]3C(=O)NC(CCCN=C(N)N)C(=O)c3nccs3)C2)cc1 (some centres undefined)	0.5 nM	55.2 s	> 60 min	633 s
N=C(N)NCCCC(NC(=O)[C@@H]1CC[C@H]2CN(C(=O)CCCc3ccccc3)CC(=O)N21)C(=O)c1nccs1 (some centres undefined)	1.2 nM	120 s	> 60 min	494 s
NC(N)=NCCCC(NC(=O)[C@@H]1CC[C@H]2CN(C(=O)[C@@H](N)Cc3c[nH]c4ccccc34)CC(=O)N21)C(=O)c1nccs1 (stereo in doubt; 34) [listing 1 of 2 here]	–	188 s	> 60 min	929 s
Cc1ccc(CCC(=O)N2CC(=O)N3[C@@H](CC[C@H]3C(=O)NC(CCCN=C(N)N)C(=O)c3nccs3)C2)cc1 (some centres undefined)	0.5 nM	88 s	> 60 min	> 999 s
NC(N)=NCCCC(NC(=O)[C@@H]1CC[C@H]2CN(C(=O)[C@@H](N)Cc3c[nH]c4ccccc34)CC(=O)N21)C(=O)c1nccs1 (stereo in doubt; 33)	75.3 nM	–	–	–
N=C(N)NCCCC(NC(=O)[C@@H]1CC[C@H]2CN(C(=O)[C@@H](N)Cc3ccc(O)cc3)CC(=O)N21)C(=O)c1nccs1 (stereo in doubt; 31)	160 nM	–	–	–
N=C(N)NCCCC(NC(=O)[C@@H]1CC[C@H]2CN(C(=O)CCc3ccccc3C(F)(F)F)CC(=O)N21)C(=O)c1nccs1 (some centres undefined)	0.5 nM	90 s	> 60 min	> 999 s
N=C(N)NCCCC(NC(=O)[C@@H]1CC[C@H]2CN(C(=O)CCC3CCCCC3)CC(=O)N21)C(=O)c1nccs1 (some centres undefined)	24 nM	52.4 s	25.4 min	320 s
N=C(N)NCCCC(NC(=O)[C@@H]1CC[C@H]2CN(C(=O)CCc3ccc4ccccc4c3)CC(=O)N21)C(=O)c1nccs1 (some centres undefined)	0.5 nM	–	–	–
N=C(N)NCCCC(NC(=O)[C@@H]1CC[C@H]2CN(C(=O)[C@@H](O)c3ccccc3)CC(=O)N21)C(=O)c1nccs1 (stereo in doubt; 29) [listing 1 of 2 here]	–	49.1 s	> 60 min	476 s
N=C(N)NCCCC(NC(=O)[C@@H]1CC[C@H]2CN(C(=O)c3ccccc3)CC(=O)N21)C(=O)c1nccs1 (some centres undefined)	–	25.5 s	45.8 min	144 s
N=C(N)NCCCC(NC(=O)[C@@H]1CC[C@H]2CN(CCCc3ccccc3)CC(=O)N21)C(=O)c1nccs1 (some centres undefined)	17 nM	30.5 s	28.3 min	122 s
N=C(N)NCCCC(NC(=O)[C@@H]1CC[C@H]2CN(C(=O)CCc3ccccn3)CC(=O)N21)C(=O)c1nccs1 (some centres undefined)	3 nM	44.2 s	47.6 min	557 s
N=C(N)NCCCC(NC(=O)[C@@H]1CC[C@H]2CN(C(=O)CCc3ccccc3)CC(=O)N21)C(=O)c1nccs1 (some centres undefined)	–	44.3 s	42.2 min	381 s
NC(N)=NCCCC(NC(=O)[C@@H]1CC[C@H]2CN(C(=O)[C@@H](N)Cc3ccc(F)cc3)CC(=O)N21)C(=O)c1nccs1 (some centres undefined)	3 nM	44.2 s	47.7 min	557 s
N=C(N)NCCCC(NC(=O)[C@@H]1CC[C@H]2CN(C(=O)COc3ccccc3)CC(=O)N21)C(=O)c1nccs1 (some centres undefined)	16 nM	31.5 s	37.8 min	248 s
NC(N)=NCCCC(NC(=O)[C@@H]1CC[C@H]2CN(C(=O)[C@@H](N)Cc3c[nH]c4ccccc34)CC(=O)N21)C(=O)c1nccs1 (stereo in doubt; 34) [listing 2 of 2 here]	0.96 nM	–	–	–

Continued, in another order:

Ki [4]	SMILES	APTT [1]	MOT [2]	TT [3]
4.4 nM	N=C(N)NCCCC(NC(=O)[C@@H]1CC[C@H]2CN(C(=O)[C@@H](O)Cc3ccccc3)CC(=O)N21)C(=O)c1nccs1 (some centres undefined)	463 s	> 60 min	679 s
84 nM	N=C(N)NCCCC(NC(=O)[C@@H]1CC[C@H]2CN(C(=O)[C@@H](O)c3ccccc3)CC(=O)N21)C(=O)c1nccs1 (stereo in doubt; 28)	–	–	–
0.35 nM	N=C(N)NCCCC(NC(=O)[C@@H]1CC[C@H]2CN(C(=O)CCc3cccc4ccccc34)CC(=O)N21)C(=O)c1nccs1 (some centres undefined)	217 s	33.2 min	> 600 s
58 nM	N=C(N)NCCCC(NC(=O)[C@@H]1CC[C@H]2CN(C(=O)NCc3ccccc3)CC(=O)N21)C(=O)c1nccs1 (some centres undefined)	–	–	–
32 nM	N=C(N)NCCCC(NC(=O)[C@@H]1CC[C@H]2CN(C(=O)C3Cc4ccccc4CN3)CC(=O)N21)C(=O)c1nccs1 (some centres undefined)	–	–	–
5 nM	N=C(N)NCCCC(NC(=O)[C@@H]1CC[C@H]2CN(C(=O)CCOc3ccccc3)CC(=O)N21)C(=O)c1nccs1 (some centres undefined)	45.2 s	47.7 min	276 s
0.92 nM	N=C(N)NCCCC(NC(=O)[C@@H]1CC[C@H]2CN(C(=O)CCc3ccccc3F)CC(=O)N21)C(=O)c1nccs1 (some centres undefined)	–	–	–
16 nM	N=C(N)NCCCC(NC(=O)[C@@H]1CC[C@H]2CN(C(=O)[C@@H](O)c3ccccc3)CC(=O)N21)C(=O)c1nccs1 (stereo in doubt; 29) [listing 2 of 2 here]	–	–	–
50 nM	N=C(N)NCCCC(NC(=O)[C@@H]1CC[C@H]2CN(C(=O)OCc3ccccc3)CC(=O)N21)C(=O)c1nccs1 (some centres undefined)	–	–	–
